Data taken from patent US20100137313A1 (ASTRAZENECA AB, priority 2008, published 2010).

Target: S. pneumoniae Topoisomerase IV ATPase (ParE) (Streptococcus pneumoniae serotype 4, UniProt Q59961)
Assay: S. pneumoniae Topoisomerase IV ATPase inhibition
Type: biochemical
Conditions: values marked * are an average of two or more data points, read-out: % Inh (13 μM) of S. pneumoniae Topoisomerase IV ATPase
Method in brief: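 ParE ATPase (1.25 nM) run with 160 μM ATP and 5 μg/ml sheared salmon sperm DNA in Tris pH 8.0, Mg2+, glycerol, DTT, Brij-35. Phosphate released read by malachite green/molybdate absorbance at 650 nm. IC50 from 10 compound concentrations; DMSO (2%) as 0% and EDTA (20 μM) as 100% inhibition.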

Sequence of S. pneumoniae Topoisomerase IV ATPase (ParE) (Q59961 whole entry): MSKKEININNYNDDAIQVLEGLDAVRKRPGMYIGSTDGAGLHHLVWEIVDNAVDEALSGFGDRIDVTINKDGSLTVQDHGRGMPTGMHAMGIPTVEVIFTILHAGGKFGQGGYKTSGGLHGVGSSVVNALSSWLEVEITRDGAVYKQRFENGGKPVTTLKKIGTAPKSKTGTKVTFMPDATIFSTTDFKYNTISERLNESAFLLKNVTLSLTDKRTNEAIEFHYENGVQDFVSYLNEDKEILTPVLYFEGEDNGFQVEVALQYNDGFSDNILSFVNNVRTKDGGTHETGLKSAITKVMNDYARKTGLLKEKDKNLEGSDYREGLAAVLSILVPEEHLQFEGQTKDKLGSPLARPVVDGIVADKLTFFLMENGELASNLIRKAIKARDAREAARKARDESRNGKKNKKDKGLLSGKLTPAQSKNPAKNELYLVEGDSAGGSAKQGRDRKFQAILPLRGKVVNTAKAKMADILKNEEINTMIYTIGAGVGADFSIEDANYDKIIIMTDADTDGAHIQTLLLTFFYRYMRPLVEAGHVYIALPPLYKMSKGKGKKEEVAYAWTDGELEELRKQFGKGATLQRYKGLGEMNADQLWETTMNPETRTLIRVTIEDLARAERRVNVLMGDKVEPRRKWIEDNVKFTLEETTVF

SMILES | inhibition at 13 µM
COc1cc(Nc2ncc(-c3cnc(OC)c(C(=O)NS(=O)(=O)c4cn(C)c(=O)n(C)c4=O)c3)c(-n3nc(C(F)(F)F)cc3C)n2)cc(OC)c1 [Example 847, 5-{2-[(3,5-dimethoxyphenyl)amino]-4-[5-methyl-3-(trifluoromethyl)-1H-pyrazol-1-yl]pyrimidin-5-yl}-N-[(1,3-dimethyl-2,4-dioxo-1,2,3,4-tetrahydropyrimidin-5-yl)sulfonyl]-2-methoxypyridine-3-carboxamide] | 97%
COc1cc(Nc2ncc(-c3cnc(OC)c(C(=O)NS(=O)(=O)CCN4C(=O)CCC4=O)c3)c(-n3nc(C(F)(F)F)cc3C)n2)cc(OC)c1 [Example 848, 5-{2-[(3,5-dimethoxyphenyl)amino]-4-[5-methyl-3-(trifluoromethyl)-1H-pyrazol-1-yl]pyrimidin-5-yl}-N-{[2-(2,5-dioxopyrrolidin-1-yl)ethyl]sulfonyl}-2-methoxypyridine-3-carboxamide] | 100%
COc1cc(Nc2ncc(-c3cnc(SC)c(C(=O)O)c3)c(-n3ccc(C(F)(F)F)n3)n2)cc(OC)c1 [Example 851, 5-{2-[(3,5-dimethoxyphenyl)amino]-4-[3-(trifluoromethyl)-1H-pyrazol-1-yl]pyrimidin-5-yl}-2-(methylsulfanyl)pyridine-3-carboxylic acid] | 98%
COc1cc(Nc2ncc(-c3cnc(SC)c(C(=O)NS(C)(=O)=O)c3)c(-n3ccc(C(F)(F)F)n3)n2)cc(OC)c1 [Example 852, 5-{2-[(3,5-dimethoxyphenyl)amino]-4-[3-(trifluoromethyl)-1H-pyrazol-1-yl]pyrimidin-5-yl}-2-(methylsulfanyl)-N-(methylsulfonyl)pyridine-3-carboxamide] | 100%
COc1cc(Nc2ncc(-c3cnc(SC)c(C(=O)O)c3)c(-n3nc(C(F)(F)F)cc3C)n2)cc(OC)c1 [Example 854, 5-{2-[(3,5-dimethoxyphenyl)amino]-4-[5-methyl-3-(trifluoromethyl)-1H-pyrazol-1-yl]pyrimidin-5-yl}-2-(methylsulfanyl)pyridine-3-carboxylic acid] | 100%
COc1cc(Nc2ncc(-c3cnc(SC)c(C(=O)NS(C)(=O)=O)c3)c(-n3nc(C(F)(F)F)cc3C)n2)cc(OC)c1 [Example 855, 5-{2-[(3,5-dimethoxyphenyl)amino]-4-[5-methyl-3-(trifluoromethyl)-1H-pyrazol-1-yl]pyrimidin-5-yl}-2-(methylsulfanyl)-N-(methylsulfonyl)pyridine-3-carboxamide] | 94%
COc1cc(C)cc(Nc2ncc(-c3cnc(OC)c(C(=O)NS(C)(=O)=O)c3)c(-n3ccc(C(F)(F)F)n3)n2)c1 [Example 856, 2-methoxy-5-{2-[(3-methoxy-5-methylphenyl)amino]-4-[3-(trifluoromethyl)-1H-pyrazol-1-yl]pyrimidin-5-yl}-N-(methylsulfonyl)pyridine-3-carboxamide] | 100%
COc1cc(C)cc(Nc2ncc(-c3cnc(OC)c(C(=O)NS(C)(=O)=O)c3)c(-n3nc(C(F)(F)F)cc3C)n2)c1 [Example 857, 2-methoxy-5-{2-[(3-methoxy-5-methylphenyl)amino]-4-[5-methyl-3-(trifluoromethyl)-1H-pyrazol-1-yl]pyrimidin-5-yl}-N-(methylsulfonyl)pyridine-3-carboxamide] | 100%
COc1cc(C)cc(Nc2ncc(-c3cc(C(=O)O)c(=O)n(C)c3)c(-n3ccc(C(F)(F)F)n3)n2)c1 [Example 859, 5-{2-[(3-methoxy-5-methylphenyl)amino]-4-[3-(trifluoromethyl)-1H-pyrazol-1-yl]pyrimidin-5-yl}-1-methyl-2-oxo-1,2-dihydropyridine-3-carboxylic acid] | 100%
COc1cc(C)cc(Nc2ncc(-c3cc(C(=O)O)c(=O)n(C)c3)c(-n3nc(C(F)(F)F)cc3C)n2)c1 [Example 861, 5-{2-[(3-methoxy-5-methylphenyl)amino]-4-[5-methyl-3-(trifluoromethyl)-1H-pyrazol-1-yl]pyrimidin-5-yl}-1-methyl-2-oxo-1,2-dihydropyridine-3-carboxylic acid] | 100%
CCn1cc(-c2cnc(Nc3cc(C)cc(OC)c3)nc2-n2nc(C(F)(F)F)cc2C)cc(C(=O)O)c1=O [Example 863, 1-ethyl-5-{2-[(3-methoxy-5-methylphenyl)amino]-4-[5-methyl-3-(trifluoromethyl)-1H-pyrazol-1-yl]pyrimidin-5-yl}-2-oxo-1,2-dihydropyridine-3-carboxylic acid] | 100%
COc1cc(Nc2ncc(-c3cnc(OC)c(C#N)c3)c(-n3nc(C(F)(F)F)cc3C)n2)cc(OC)c1 [Example 868, 5-(2-(3,5-dimethoxyphenylamino)-4-(5-methyl-3-(trifluoromethyl)-1H-pyrazol-1-yl)pyrimidin-5-yl)-2-methoxynicotinonitrile] | 6%
COCC(COC)Oc1ncc(-c2cnc(Nc3ccc(F)c(Cl)c3)nc2-n2ccc(C(F)(F)F)n2)cc1C(=O)O [Example 869, 5-(2-(3-chloro-4-fluorophenylamino)-4-(3-(trifluoromethyl)-1H-pyrazol-1-yl)pyrimidin-5-yl)-2-(1,3-dimethoxypropan-2-yloxy)nicotinic acid] | 93%
COCC(COC)Oc1ncc(-c2cnc(Nc3ccc(F)c(Cl)c3)nc2-n2nc(C(F)(F)F)cc2C)cc1C(=O)O [Example 870, 5-(2-(3-chloro-4-fluorophenylamino)-4-(5-methyl-3-(trifluoromethyl)-1H-pyrazol-1-yl)pyrimidin-5-yl)-2-(1,3-dimethoxypropan-2-yloxy)nicotinic acid] | 100%
Cc1cc(C(F)(F)F)nn1-c1nc(Nc2ccc(F)c(Cl)c2)ncc1-c1cnc(OCCc2ccncc2)c(C(=O)O)c1 [Example 871, 5-(2-(3-chloro-4-fluorophenylamino)-4-(5-methyl-3-(trifluoromethyl) 1H-pyrazol-1-yl)pyrimidin-5-yl)-2-(2-(pyridin-4-yl)ethoxy)nicotinic acid] | 100%
O=C(O)c1cc(-c2cnc(Nc3ccc(F)c(Cl)c3)nc2-n2ccc(C(F)(F)F)n2)cnc1OCCc1ccncc1 [Example 872, 5-(2-(3-chloro-4-fluorophenylamino)-4-(3-(trifluoromethyl)-1H-pyrazol-1-yl)pyrimidin-5-yl)-2-(2-(pyridin-4-yl)ethoxy)nicotinic acid] | 100%
COc1cc(Nc2ncc(-c3cnc(OC)c(-c4nnn[nH]4)c3)c(-n3nc(C(F)(F)F)cc3C)n2)cc(OC)c1 [Example 873, N-(3,5-dimethoxyphenyl)-5-(6-methoxy-5-(1H-tetrazol-5-yl)pyridin-3-yl)-4-(5-methyl-3-(trifluoromethyl)-1H-pyrazol-1-yl)pyrimidin-2-amine] | 100%
CS(=O)(=O)NC(=O)c1cncc(-c2cnc(Nc3ccc(F)c(Cl)c3)nc2-n2ccc(C(F)(F)F)n2)c1 [Example 874, 5-(2-(3-chloro-4-fluorophenylamino)-4-(3-(trifluoromethyl)-1H-pyrazol-1-yl)pyrimidin-5-yl)-N-(methylsulfonyl)nicotinamide] | 100%
O=C(O)/C=C/c1cccc(-c2cnc(Nc3ccc(F)c(Cl)c3)nc2-n2ccc(C3CC3)n2)c1 [Example 875, (E)-3-(3-(2-(3-chloro-4-fluorophenylamino)-4-(3-cyclopropyl-1H-pyrazol-1-yl)pyrimidin-5-yl)phenyl)acrylic acid] | 98%
COc1cccc(-c2cnc(Nc3ccc(F)c(Cl)c3)nc2-n2ccc(C(F)(F)F)n2)n1 [Example 876, N-(3-chloro-4-fluorophenyl)-5-(6-methoxypyridin-2-yl)-4-(3-(trifluoromethyl)-1H-pyrazol-1-yl)pyrimidin-2-amine] | 0%
O=C(O)c1cccc(-c2cnc(Nc3ccc(F)c(Cl)c3)nc2-n2ccc(C(F)(F)F)n2)n1 [Example 877, 6-(2-(3-chloro-4-fluorophenylamino)-4-(3-(trifluoromethyl)-1H-pyrazol-1-yl)pyrimidin-5-yl)picolinic acid] | 100%
CN(C(=O)c1cccc(-c2cnc(Nc3ccc(F)c(Cl)c3)nc2-n2ccc(C(F)(F)F)n2)c1)S(C)(=O)=O [Example 878, 3-(2-(3-chloro-4-fluorophenylamino)-4-(3-(trifluoromethyl)-1H-pyrazol-1-yl)pyrimidin-5-yl)-N-methyl-N-(methylsulfonyl)benzamide] | 88%
Cc1cc(C(=O)O)nc(-c2cnc(Nc3ccc(F)c(Cl)c3)nc2-n2ccc(C(F)(F)F)n2)n1 [Example 879, 2′-(3-chloro-4-fluorophenylamino)-6-methyl-4′-(3-(trifluoromethyl)-1H-pyrazol-1-yl)-2,5′-bipyrimidine-4-carboxylic acid] | 91%
COc1cc(Nc2ncc(-c3cccc(/C=C/C(=O)O)c3)c(-n3nc(C(F)(F)F)cc3C)n2)cc(C(F)(F)F)c1 [Example 880, (E)-3-(3-(2-(3-methoxy-5-(trifluoromethyl)phenylamino)-4-(5-methyl-3-(trifluoromethyl)-1H-pyrazol-1-yl)pyrimidin-5-yl)phenyl)acrylic acid] | 91%
COc1cc(Nc2ncc(-c3cncc(C(=O)CS(C)(=O)=O)c3)c(-n3nc(C(F)(F)F)cc3C)n2)cc(C(F)(F)F)c1 [Example 881, 1-(5-(2-(3-methoxy-5-(trifluoromethyl)phenylamino)-4-(5-methyl-3-(trifluoromethyl)-1H-pyrazol-1-yl)pyrimidin-5-yl)pyridin-3-yl)-2-(methylsulfonyl)ethanone] | 97%
COc1cc(Nc2ncc(-c3cncnc3)c(-n3nc(C(F)(F)F)cc3C)n2)cc(C(F)(F)F)c1 [Example 882, N-(3-methoxy-5-(trifluoromethyl)phenyl)-4-(5-methyl-3-(trifluoromethyl)-1H-pyrazol-1-yl)-5,5′-bipyrimidin-2-amine] | 100%
